Measurements published in patent US8551999B2, “Heterocyclic compound and pharmaceutical composition thereof” (Otsuka Pharmaceutical Co., Ltd., priority 2007, dated 2013).

| SMILES | melting point |
| --- | --- |
| Cc1nc(Oc2ccc3c(c2)cc(C(=O)N2CCN(Cc4ccncc4)CC2)n3C)ccc1N(C)C(=O)c1ccc(C(F)(F)F)cc1.O=C(O)C(=O)O.O=C(O)C(=O)O [Example 566, N-Methyl-N-{2-methyl-6-[1-methyl-2-(4-pyridin-4-ylmethyl-piperazine-1-carbonyl)-1H-indol-5-yloxy]pyridin-3-yl}-4-tri-fluoromethylbenzamide dioxalate] | 117 to 120 °C |
| CC(C)Oc1ccc(CN2CCN(C(=O)c3cc4ccc(Oc5ccc(N(C)C(=O)c6ccc(OC(F)F)cc6)cn5)cc4n3C)CC2)cc1.Cl | 229.7 to 230.4 °C |
| Br.Cn1c(C(=O)N2CCN(Cc3ccc(OCC(F)(F)F)cc3)CC2)cc2cc(Oc3ccc(NC(=O)c4ccc(C(F)(F)F)cc4O)cn3)ccc21 [Example 267, 2-Hydroxy-N-[6-(1-methyl-2-{4-[4-(2,2,2-trifluoroethoxy)benzyl]-piperazine-1-carbonyl}-1H-indol-5-yloxy)pyridin-3-yl]-4-tri-fluoromethylbenzamide hydrobromide] | 214 to 219 °C (dec.) |
| Br.COc1ccc(CN2CCN(C(=O)c3cc4ccc(Oc5ccc(NC(=O)c6ccc(Cl)c(Cl)c6)cn5)cc4n3C)CC2)cc1 [Example 258, 3,4-Dichloro-N-(6-{2-[4-(4-methoxybenzyl)piperazine-1-carbonyl]-1-methyl-1H-indol-6-yloxy}pyridin-3-yl)benzamide hydrobromide] | 234.6 to 237.2 °C |
| Br.CN(C(=O)c1ccc(Cl)c(Cl)c1)c1ccc(Oc2ccc3cc(C(=O)N4CCN(Cc5ccc(OC(F)F)cc5)CC4)n(C)c3c2)nc1 [Example 488, 3,4-Dichloro-N-(6-{2-[4-(4-difluoromethoxybenzyl)piperazine-1-carbonyl]-1-methyl-1H-indol-6-yloxy}pyridin-3-yl)-N-methyl-benzamide hydrobromide] | 185.6 to 189.3 °C |
| Br.Cc1cc(Oc2ccc3cc(C(=O)N4CCN(Cc5ccc(OCC(F)(F)F)cc5)CC4)n(C)c3c2)ncc1NC(=O)c1ccc(C(F)(F)F)cc1 [Example 46, N-[4-Methyl-6-(1-methyl-2-{4-[4-(2,2,2-trifluoroethoxy)benzyl]-piperazine-1-carbonyl}-1H-indol-6-yloxy)pyridin-3-yl]-4-tri-fluoromethylbenzamide hydrobromide] | 222.4 to 224.6 °C |
| Br.CCOc1ccc(CN2CCN(C(=O)c3cc4cc(Oc5ccc(NC(=O)c6ccc(Cl)c(Cl)c6)cn5)ccc4n3C)CC2)cc1 [Example 360, 3,4-Dichloro-N-(6-{2-[4-(4-ethoxybenzyl)piperazine-1-carbonyl]-1-methyl-1H-indol-5-yloxy}pyridin-3-yl)benzamide hydrobromide] | 235 to 238 °C (dec.) |
| Br.COc1ccc(CN2CCN(C(=O)c3cc4cc(Oc5ccc(NC(=O)c6ccc(Cl)c(Cl)c6)cn5)ccc4n3C)CC2)cc1 [Example 349, 3,4-Dichloro-N-(6-{2-[4-(4-methoxybenzyl)piperazine-1-carbonyl]-1-methyl-1H-indol-5-yloxy}pyridin-3-yl)benzamide hydrobromide] | 244 to 247 °C (dec.) |
| CN(c1ccc(Oc2ccc3cc(C(=O)N4CCN(Cc5ccc(OCC(F)(F)F)cc5)CC4)n(C)c3c2)nc1)S(C)(=O)=O.Cl | 252.7 to 253.6 °C |
| Br.CCCOc1ccc(CN2CCN(C(=O)c3cc4ccc(Oc5ccc(N(C)C(=O)c6ccc(OC(F)(F)F)cc6)cn5)cc4n3C)CC2)cc1 [Example 471, N-Methyl-N-(6-{1-methyl-2-[4-(4-propoxybenzyl)piperazine-1-carbonyl]-1H-indol-6-yloxy}pyridin-3-yl)-4-trifluoromethoxy-benzamide hydrobromide] | 240 to 242 °C |
| COc1ccc(CN2CCN(C(=O)c3cc4cc(Oc5ccc(NC(=O)c6ccc(C(F)(F)F)cc6)cn5)ccc4n3C)[C@H](C)C2)cc1.O=C(O)C(=O)O [Example 393, N-(6-{2-[(R)-4-(4-Methoxybenzyl)-2-methylpiperazine-1-carbonyl]-1-methyl-1H-indol-5-yloxy}pyridin-3-yl)-4-trifluoromethyl-benzamide oxalate] | 161 to 163 °C |
| Br.COc1ccc(CN2CCN(C(=O)c3cc4cc(Oc5ccc(NC(=O)c6cc7cc(Br)ccc7[nH]6)cn5)ccc4n3C)CC2)cc1 [Example 228, 5-Bromo-1H-indole-2-carboxylic acid (6-{2-[4-(4-methoxybenzyl)-piperazine-1-carbonyl]-1-methyl-1H-indol-5-yloxy}pyridin-3-yl)-amide hydrobromide] | 263 to 265 °C |
| Br.CC(C)Oc1ccc(CN2CCN(C(=O)c3cc4ccc(Oc5ccc(N(C)C(=O)c6ccc(Cl)c(Cl)c6)cn5)cc4n3C)CC2)cc1 [Example 486, 3,4-Dichloro-N-(6-{2-[4-(4-isopropoxybenzyl)piperazine-1-carbonyl]-1-methyl-1H-indol-6-yloxy}pyridin-3-yl)-N-methyl-benzamide hydrobromide] | 220.2 to 223.5 °C |
| Br.CCN(C(=O)Nc1ccc(C(F)(F)F)cc1)c1ccc(Oc2ccc3c(c2)cc(C(=O)N2CCN(Cc4ccccc4)CC2)n3C)nc1 [Example 580, 1-{6-[2-(4-Benzylpiperazine-1-carbonyl)-1-methyl-1H-indol-5-yl-oxy]pyridin-3-yl}-1-ethyl-3-(4-trifluoromethylphenyl)urea hydrobromide] | 224 to 230 °C |
| Br.COc1ccc(CN2CCN(C(=O)c3cc4cc(Oc5ccc(N(C)C(=O)c6ccc(C(F)(F)F)cc6)cn5)ccc4n3C)CC2)cc1OC [Example 345, N-(6-{2-[4-(3,4-Dimethoxybenzyl)piperazine-1-carbonyl]-1-methyl-1H-indol-5-yloxy}pyridin-3-yl)-N-methyl-4-trifluoromethyl-benzamide hydrobromide] | 175 to 177 °C |
| Br.Cn1c(C(=O)N2CCN(Cc3ccc(O)cc3)CC2)cc2ccc(Oc3ccc(NC(=O)c4ccc(C(F)(F)F)cc4)cn3)cc21 [Example 459, N-(6-{2-[4-(4-Hydroxybenzyl)piperazine-1-carbonyl]-1-methyl-1H-indol-6-yloxy}pyridin-3-yl)-4-trifluoromethylbenzamide hydrobromide] | 241.4 to 242.7 °C |
| Cn1c(C(=O)N2CCN(Cc3ccc(OC(CF)CF)cc3)CC2)cc2ccc(Oc3ccc(NS(=O)(=O)C4=CC=C(Cl)C(C)(Cl)C4)cn3)cc21 (centres unmarked) [Example 506, 3,4-Dichloro-N-[6-(2-{4-[4-(2-fluoro-1-fluoromethylethoxy)-benzyl]piperazine-1-carbonyl}-1-methyl-1H-indol-6-yloxy)pyridin-3-yl]-M-methylbenzenesulfonamide] | 157.7 to 160.2 °C |
| COc1ccccc1/C=C/CN1CCN(C(=O)c2cc3cc(Oc4ccc(NC(=O)c5ccc(C(F)(F)F)cc5)cn4)ccc3n2C)CC1.CS(=O)(=O)O [Example 358, N-[6-(2-{4-[(E)-3-(2-Methoxyphenyl)allyl]piperazine-1-carbonyl}-1-methyl-1H-indol-5-yloxy)pyridin-3-yl]-4-trifluoromethyl-benzamide methanesulfonate] | 268 to 271 °C (dec.) |
| Br.CCOc1ccc(CN2CCN(C(=O)c3cc4c(C)c(Oc5ccc(N(C)C(=O)c6ccc(C(F)(F)F)cc6)cn5)ccc4n3C)CC2)cc1 [Example 427, N-(6-{2-[4-(4-Ethoxybenzyl)piperazine-1-carbonyl]-1,4-dimethyl-1H-indol-5-yloxy}pyridin-3-yl)-N-methyl-4-trifluoromethyl-benzamide hydrobromide] | 224 to 226 °C |
| O=C(CN1CCc2cc(Oc3ccc(NS(=O)(=O)c4ccc(Cl)c(Cl)c4)cn3)ccc21)N1CCN(Cc2ccc3c(c2)OCO3)CC1 [Example 64, N-(6-{1-[2-(4-Benzo[1,3]dioxol-5-ylmethylpiperazin-1-yl)-2-oxo-ethyl]-2,3-dihydro-1H-indol-5-yloxy}pyridin-3-yl)-3,4-dichloro-benzenesulfonamide] | 152 to 153 °C |
| Br.Cn1c(C(=O)N2CCN(Cc3ccc(OCC(F)(F)F)cc3)CC2)cc2ccc(Oc3ccc(NC(=O)c4ccc(Cl)c(Cl)c4)cn3)cc21 [Example 465, 3,4-Dichloro-N-[6-(1-methyl-2-{4-[4-(2,2,2-trifluoroethoxy)-benzyl]piperazine-1-carbonyl}-1H-indol-6-yloxy)pyridin-3-yl]-benzamide hydrobromide] | 251.8 to 253.5 °C |
| Br.Br.Cc1cc(Oc2ccc3c(c2)cc(C(=O)N2CCN(Cc4ccncc4)CC2)n3C)ncc1NC(=O)c1ccc(C(F)(F)F)cc1 [Example 362, N-{4-Methyl-6-[1-methyl-2-(4-pyridin-4-ylmethylpiperazine-1-carbonyl)-1H-indol-5-yloxy]pyridin-3-yl}-4-trifluoromethyl-benzamide dihydrobromide] | 228 to 232 °C (dec.) |
| Br.Cc1cc(Oc2ccc3cc(C(=O)N4CCN(Cc5ccc(OCC(F)(F)F)cc5)CC4)n(C)c3c2)ncc1N(C)C(=O)c1ccc(C(F)(F)F)cc1 [Example 47, N-Methyl-N-[4-methyl-6-(1-methyl-2-{4-[4-(2,2,2-trifluoroethoxy)-benzyl]piperazine-1-carbonyl}-1H-indol-6-yloxy)pyridin-3-yl]-4-trifluoromethylbenzamide hydrobromide] | 220 to 222.5 °C |
| Br.CN(C(=O)c1ccc(C(F)(F)F)cc1F)c1ccc(Oc2ccc3c(c2)cc(C(=O)N2CCN(Cc4ccc5c(c4)OCO5)CC2)n3C)nc1 [Example 319, N-{6-[2-(4-Benzo[1,3]dioxol-5-ylmethylpiperazine-1-carbonyl)-1-methyl-1H-indol-5-yloxy]pyridin-3-yl}-2-fluoro-N-methyl-4-tri-fluoromethylbenzamide hydrobromide] | 187 to 190 °C |
| CCCOc1ccc(CN2CCN(C(=O)c3cc4cc(Oc5ccc(N(C)C(=O)c6ccc(Cl)c(Cl)c6)cn5)ccc4n3C)CC2)cc1.O=C(O)/C=C\C(=O)O [Example 370, 3,4-Dichloro-N-methyl-N-(6-{1-methyl-2-[4-(4-propoxybenzyl)-piperazine-1-carbonyl]-1H-indol-5-yloxy}pyridin-3-yl)benzamide maleate] | 163 to 164 °C |
| Br.CN(C(=O)c1ccc(C(F)(F)F)cc1)c1ccc(Oc2ccc3cc(C(=O)N4CCN(Cc5ccc(OC(F)(F)F)cc5)CC4)n(C)c3c2)nc1 [Example 446, N-Methyl-N-(6-{1-methyl-2-[4-(4-trifluoromethoxybenzyl)-piperazine-1-carbonyl]-1H-indol-6-yloxy}pyridin-3-yl)-4-tri-fluoromethylbenzamide hydrobromide] | 237 to 239 °C |
